# Values quoted from earlier work, collected in patent publication US6022558A, “Transdermal preparations of oxicams” (priority 1997, dated 2000).
# Tests used:
# [1] = oral administration
# [2] = rats and rabbits
# [3] = single or multiple doses in patients
structure (smiles),measurement,setting,value
"CN1C(C(=O)Nc2ccccn2)=C(O)c2ccccc2S1(=O)=O [piroxicam, 4-hydroxyl-2-methyl-N-(2-pyridyl)-2H-1,2-benzo-thiazine-3-carboxamide-1,1-dioxide]",Second plasma maximum,[1],shows a second maximum plasma concentration due to hepatic and intestinal recycling
same,Oral absorption,[2],almost completely absorbed
same,Cmax and AUC dependence on dose,[3],proportional to the dose administered
same,Pharmacokinetic linearity,[3],possessed a linear pharmacokinetic property
